Reference: patent US20040186288A1, “3,5-Diamino-1,2,4-triazoles as kinase inhibitors” (priority 2001, published 2004)

Key:
[1] = system: human MCF7 tumor cells; assay: Proliferation assay (crystal violet); type: cell-based; settings: 96 h, 4 days incubation, read-out: MCF-7 IC50
Experimental: Cultivated human MCF7 tumor cells were flattened out at a density of 5000 cells/measuring point in a 96-well multititer plate in 200 μl of the corresponding growth medium. After 24 hours, the cells of one plate (zero-point plate) were colored with crystal violet (see below), while the medium of the other plates was replaced by fresh culture medium (200 μl), to which the test substances were added in various concentrations (0 μm, as well as in the range of 0.01-30 μm; the final concentration of the solvent dimethyl sulfoxide was 0.5%). The cells were incubated for 4 days in the presence of test substances. The cell proliferation was determined by coloring the cells with crystal violet: the cells were fixed by adding 20 μl/measuring point of an 11% glutaric aldehyde solution for 15 minutes at room temperature. After three washing cycles of the fixed cells with water, the plates were dried at room temperature. The cells were colored by adding 100 μl/measuring point of a 0.1% crystal violet solution (the pH was set at 3 by adding acetic acid). After three washing cycles of the colored cells with water, the plates were dried at room temperature. The dye was dissolved by adding 100 μl/measuring point of a 10% acetic acid solution. The extinction was determined by photometry at a wavelength of 595 nm. The change of cell growth, in percent, was calculated by standardization of the measured values to the extinction values of the zero-point plate (=0%) and the extinction of the untreated (0 μm) cells (=100%).

[2] = target: T1, CDK2/CycE (Homo sapiens, UniProt P24941); assay: CDK2/CycE kinase assay; type: biochemical; settings: histone IIIS substrate, 0.5 μm ATP, 15 minutes at 22° C.
T1 construct: GST; purchased Dr. Dieter Marme, Klinik für Tumorbiologie, Freiburg (obtained from an outside laboratory, not a commercial vendor); host or cells: baculovirus-infected insect cells (Sf9)
Experimental: Recombinant CDK2- and CycE-GST-fusion proteins, purified from baculovirus-infected insect cells (Sf9), were obtained by Dr. Dieter Marme, Klinik für Tumorbiologie [Clinic for Tumor Biology], Freiburg. Histone IIIS, which was used as a kinase substrate, was purchased by the Sigma Company.
CDK2/CycE (50 ng/measuring point) was incubated for 15 minutes at 22° C. in the presence of various concentrations of test substances (0 μm, as well as within the range of 0.01-100 μm) in assay buffer [50 mmol of tris/HCl pH 8.0, 10 mmol of MgCl2, 0.1 mmol of Na ortho-vanadate, 1.0 mmol of dithiothreitol, 0.5 μm of adenosine triphosphate (ATP), 10 μg/measuring point of histone IIIS, 0.2 μCi/measuring point of ^33P-gamma ATP, 0.05% NP40, 12.5% dimethyl sulfoxide]. The reaction was stopped by adding EDTA solution (250 mmol, pH 8.0, 14 μl/measuring point).
From each reaction batch, 10 μl was applied to P30 filter strips (Wallac Company), and non-incorporated ^33P-ATP was removed by subjecting the filter strips to three washing cycles for 10 minutes each in 0.5% phosphoric acid. After the filter strips were dried for one hour at 70° C., the filter strips were covered with scintillator strips (MeltiLex™ A, Wallac Company) and baked for one hour at 90° C. The amount of incorporated ^33P (substrate phosphorylation) was determined by scintillation measurement in a gamma-radiation measuring device (Wallac).

[3] = target: Tie2 (Homo sapiens, UniProt Q02763); assay: Tie2 kinase assay; type: biochemical; settings: poly-(Glu4Tyr) substrate, 33P-ATP, 10 minutes at room temperature; read-out: Tie 2 IC50
Experimental: (§1) KDR (VEGFR II) and Tie2 Assay
(§2) In a microtiter plate (without protein binding!) that tapers to a point, the solutions are mixed in the following sequence:
(§3) 10 μl of substrate mixture
(§4) 10 μl of inhibitor dilution
(§5) 10 μl of enzyme solution.
(§6) It is mixed thoroughly and incubated for 10 minutes at room temperature. Then, 10 μl of the stop solution is added, mixed, and 10 μl of the solution is transferred to a P 81, phosphocellulose filter. It is washed several times in 0.1 M phosphoric acid. The filter paper is dried, coated with Meltilex and measured in a microbeta. The IC50 values are determined from the inhibitor concentration that is necessary to inhibit the phosphate incorporation to 50% of the uninhibited incorporation after removal of the blank reading (EDTA-stopped reaction).
(§7) Substrate solvent: 10 mmol of DTT, 10 mmol of MnCl2, 100 mmol of MgCl2 (DTT slightly oxidized, frozen at −80° C.). Before the test, 1:10 diluted with H2O.
(§8) Enzyme solvent: 120 mmol of TrisCl, pH 7.5; 10 μmol of Na3VO4.
(§9) 10 μl of volume of ATP stock solution A+25 μCi γ-^33P-ATP (about 2.5 μl of stock solution B)+30 μl of poly-(Glu4Tyr) stock solution C+1.21 ml of substrate solvent
(§10) Substances corresponding to the dilutions, 3% DMSO in substrate solvent as a control
(§11) 11.25 μg of the enzyme stock solution (KDR and FLT-1 kinase and Tie2) are diluted at of enzyme solvent (other amounts in the case of other activity!).
(§12) Stop Solution: […] of EDTA, pH 7.0
(§13) Washing Solution: 0.5% phosphoric acid

[4] = target: KDR (VEGFR II) (Homo sapiens, UniProt P35968); assay: KDR (VEGFR II) kinase assay; type: biochemical; settings: poly-(Glu4Tyr) substrate, 33P-ATP, 10 minutes at room temperature
Experimental: as §1, §2, §3, §4, §5, §6, §7, §8, §9, §10, §11, §12, §13

Chain of KDR (VEGFR II) (P35968 20-1356, species assumed): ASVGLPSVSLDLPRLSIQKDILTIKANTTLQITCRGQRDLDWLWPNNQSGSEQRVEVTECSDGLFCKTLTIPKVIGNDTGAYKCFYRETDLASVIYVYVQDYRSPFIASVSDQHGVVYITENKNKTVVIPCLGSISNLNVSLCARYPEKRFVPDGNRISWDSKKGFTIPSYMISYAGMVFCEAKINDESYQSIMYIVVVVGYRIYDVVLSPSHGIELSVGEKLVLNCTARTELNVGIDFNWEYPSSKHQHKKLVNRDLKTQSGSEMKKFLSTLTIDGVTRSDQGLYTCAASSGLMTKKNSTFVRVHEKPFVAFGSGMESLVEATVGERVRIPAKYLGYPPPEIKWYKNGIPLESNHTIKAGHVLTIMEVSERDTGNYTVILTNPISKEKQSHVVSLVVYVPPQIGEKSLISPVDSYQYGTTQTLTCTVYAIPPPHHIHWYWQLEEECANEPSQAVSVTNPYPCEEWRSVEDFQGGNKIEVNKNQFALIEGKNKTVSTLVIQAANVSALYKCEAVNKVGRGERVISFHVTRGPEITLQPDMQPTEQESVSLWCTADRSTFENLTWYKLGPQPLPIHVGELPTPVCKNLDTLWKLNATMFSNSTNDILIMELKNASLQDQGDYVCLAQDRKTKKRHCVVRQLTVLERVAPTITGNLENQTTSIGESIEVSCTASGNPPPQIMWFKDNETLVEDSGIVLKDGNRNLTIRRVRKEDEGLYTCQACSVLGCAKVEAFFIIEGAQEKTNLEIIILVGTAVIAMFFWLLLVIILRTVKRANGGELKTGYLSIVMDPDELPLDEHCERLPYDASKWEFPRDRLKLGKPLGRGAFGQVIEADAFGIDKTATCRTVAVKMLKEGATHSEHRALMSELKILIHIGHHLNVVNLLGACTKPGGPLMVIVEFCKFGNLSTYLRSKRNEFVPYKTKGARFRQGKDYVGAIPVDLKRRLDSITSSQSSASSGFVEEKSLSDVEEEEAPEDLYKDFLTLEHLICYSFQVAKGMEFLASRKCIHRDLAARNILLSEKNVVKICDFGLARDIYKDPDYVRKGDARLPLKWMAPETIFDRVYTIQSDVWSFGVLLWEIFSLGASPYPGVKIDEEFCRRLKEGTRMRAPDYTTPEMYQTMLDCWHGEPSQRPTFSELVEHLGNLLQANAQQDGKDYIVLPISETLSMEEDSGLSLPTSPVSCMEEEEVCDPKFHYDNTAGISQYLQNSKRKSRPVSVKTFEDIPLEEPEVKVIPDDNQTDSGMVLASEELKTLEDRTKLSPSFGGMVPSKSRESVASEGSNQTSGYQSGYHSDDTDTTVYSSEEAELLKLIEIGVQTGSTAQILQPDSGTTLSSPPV
Chain of Tie2 (Q02763 23-1124, species assumed): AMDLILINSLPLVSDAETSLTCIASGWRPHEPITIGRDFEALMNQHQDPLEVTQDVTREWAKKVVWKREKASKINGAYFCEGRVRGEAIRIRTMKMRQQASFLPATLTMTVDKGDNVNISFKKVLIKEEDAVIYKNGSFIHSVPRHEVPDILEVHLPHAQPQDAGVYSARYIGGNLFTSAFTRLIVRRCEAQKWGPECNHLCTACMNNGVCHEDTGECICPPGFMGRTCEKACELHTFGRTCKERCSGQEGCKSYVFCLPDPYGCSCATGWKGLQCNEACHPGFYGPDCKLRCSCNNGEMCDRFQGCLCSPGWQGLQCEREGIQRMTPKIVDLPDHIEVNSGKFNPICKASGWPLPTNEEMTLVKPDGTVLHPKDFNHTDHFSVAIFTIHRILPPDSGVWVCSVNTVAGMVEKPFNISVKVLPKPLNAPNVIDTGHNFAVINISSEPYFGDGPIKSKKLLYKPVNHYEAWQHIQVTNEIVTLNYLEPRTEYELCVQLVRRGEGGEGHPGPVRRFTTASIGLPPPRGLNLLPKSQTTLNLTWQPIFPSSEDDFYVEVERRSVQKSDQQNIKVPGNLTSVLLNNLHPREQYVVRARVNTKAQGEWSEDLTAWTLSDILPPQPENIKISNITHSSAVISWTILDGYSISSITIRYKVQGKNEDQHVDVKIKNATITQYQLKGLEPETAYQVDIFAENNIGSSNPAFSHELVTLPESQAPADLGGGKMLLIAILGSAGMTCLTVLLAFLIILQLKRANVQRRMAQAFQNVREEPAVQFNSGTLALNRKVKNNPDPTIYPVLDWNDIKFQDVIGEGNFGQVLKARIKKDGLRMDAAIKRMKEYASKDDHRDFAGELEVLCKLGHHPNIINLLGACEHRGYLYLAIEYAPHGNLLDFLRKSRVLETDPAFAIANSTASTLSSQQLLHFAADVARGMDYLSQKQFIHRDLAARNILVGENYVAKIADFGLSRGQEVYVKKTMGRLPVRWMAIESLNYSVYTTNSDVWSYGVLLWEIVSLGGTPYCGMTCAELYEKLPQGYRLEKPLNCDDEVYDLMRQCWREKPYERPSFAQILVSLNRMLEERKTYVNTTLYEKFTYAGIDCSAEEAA

Row | SMILES | IC50 [1] [nM] | melting point [°C] | IC50 [2] [nM] | IC50 [3] [nM] | IC50 [4] [nM]
1 | Cc1cc(C(F)(F)F)cc(-n2nc(Nc3cccnc3)nc2N)n1 [Example 3] | > 10000 | 212 | 2000 | > 1000 | 10
2 | Nc1nc(Nc2cccnc2)nn1-c1ncccc1C(F)(F)F [Example 4] | 6000 | 255 | 6000 | > 1000 | 30
3 | Nc1nc(Nc2cccnc2)nn1-c1ccc2ccccc2c1 [Example 5] | 2000 | 247 | 400 | > 1000 | 10
4 | Nc1nc(Nc2cccnc2)nn1-c1ccc(C(F)(F)F)cn1 [Example 6] | 4000 | 254 | 2000 | > 1000 | 200
5 | Nc1nc(Nc2cccnc2)nn1-c1cccnc1 [Example 7] |  | 234 |  |  | 
6 | Nc1nc(Nc2cccnc2)nn1-c1ccccc1 [Example 8] |  | 223 |  |  | 
7 | Nc1nc(Nc2cnc3ccccc3c2)nn1-c1ccc2ccccc2n1 [Example 12] |  | 249 |  |  | 
8 | Nc1nc(Nc2cccnc2)nn1-c1nccc2ccccc12 [Example 13] | 700 | 246 | 200 | 500 | 20
9 | Nc1nc(Nc2cncc(Br)c2)nn1-c1ccccn1 [Example 15] | 1100 | 285 | 300 | 500 | 40
10 | Nc1nc(Nc2cnc3ncccc3c2)nn1-c1ccccn1 [Example 17] | 1500 | 253 | 500 | > 1000 | 30

Continued, values first:

Row | IC50 [1] [nM] | melting point [°C] | IC50 [2] [nM] | IC50 [3] [nM] | IC50 [4] [nM] | SMILES
11 | 1500 |  |  |  |  | Nc1nc(Nc2cccnc2)nn1-c1ccccn1 [Example 1, 5-Amino-1-(2-pyridinyl)-3-(3-pyridinylamino)-1H-1,2,4-triazole]
12 | > 10000 | 237 | 1000 | 500 | 50 | COc1ccc(Nc2nc(N)n(-c3ccccn3)n2)cn1 [Example 9]
13 | 4000 | 225 | 800 | 500 | 20 | Nc1nc(Nc2cnc3ccccc3c2)nn1-c1ccccn1 [Example 10]
14 |  | 169 |  |  |  | COc1ncccc1Nc1nc(N)n(-c2ccccn2)n1 [Example 11]
15 |  | 159 |  |  |  | COc1ccc(Nc2nc(N)n(-c3ccccn3)n2)c(OC)n1 [Example 14]
16 |  | 287 | 2800 |  | 20 | Nc1nc(Nc2cncc3ccccc23)nn1-c1ccccn1 [Example 16]
17 |  | 278 |  |  |  | Nc1nc(Nc2nccc3ccccc23)nn1-c1ccccn1 [Example 18]
18 |  | 326 |  |  |  | Nc1nc(Nc2ccc3ccccc3n2)nn1-c1ccccn1 [Example 19]
19 |  | 193 |  |  |  | Nc1nc(Nc2cnccc2Cl)nn1-c1ccccn1 [Example 20]
20 |  | 191 |  |  |  | Cc1ccc(Nc2nc(N)n(-c3ccccn3)n2)c(C)n1 [Example 21]
